Experimental data as given in paper PMC5444695, “CM363, a novel naphthoquinone derivative which acts as multikinase modulator and overcomes imatinib resistance in chronic myelogenous leukemia” (Oncotarget, 2016).
Entries after “also recorded” stand apart in the source; their conditions may differ. Read-outs that look alike come from different tables or passages of the source.

Tests used:
[1] = test system: HEK cells; assay: MTT cell viability assay, HEK cells; assay type: cell-based; settings: Homo sapiens, HEK293, 48 h, read-out: IC50 (μM) Mean ± SD
Experimental: (§1) All cell lines were purchased from the American Type Culture Collection (ATCC). The cell lines were growth at 37°C under 5% CO2 under humidified atmosphere. The cell lines K562 (derived from patients during the blast crisis phase of CML and IM sensitive), K562-R (IM resistance human CML), KmycBT15I (KBTI; IM resistant human CML, expressing the Bcr-Abl […] mutant), HEL (human erythroleukemia), HL60 (human acute myeloid leukemia), MOLM-13 (human acute myeloid leukemia), MV4.11 (human acute monocytic leukemia), HCT-15 (human colorectal adenocarcinoma), PC3 (human prostate cancer), MCF7 (human breast cancer), NCTC3749 (mouse lymphoma) as well as the MRC.5 cells (non-malignant human lung fibroblasts) were maintained in RPMI-1640 medium. The cell lines L1210 (mouse lymphocytic leukemia cells), Raw (mouse macrophage), HeLa (human epithelial cervix cancer), U-2 OS (human osteosarcoma), MG63 (human osteosarcoma) and T47D (human breast cancer adenocarcinoma) were maintained in DMEM. HEK293 cells stably expressing the GH receptor (HEKGHR) were maintained in DMEM-F12 medium. […]
(§2) Cells were seeded in 96-well plates (BD Falcon, France) at exponential growth density (5000–20000 cells/well) and treated with vehicle (0.05% DMSO) or compound (0.01 to 10 μM) for 48–72 h. […] Optical density was measured at 595 nm with the iMark Microplate Reader (BioRad, CA, USA).

[2] = test system: K562 cells; assay: MTT cell viability assay, K562 cells; assay type: cell-based, human; settings: for IC50: Homo sapiens
Experimental: All cell lines were purchased from the American Type Culture Collection (ATCC). The cell lines were growth at 37°C under 5% CO2 under humidified atmosphere. The cell lines K562 (derived from patients during the blast crisis phase of CML and IM sensitive), K562-R (IM resistance human CML), KmycBT15I (KBTI; IM resistant human CML, expressing the Bcr-Abl […] mutant), HEL (human erythroleukemia), HL60 (human acute myeloid leukemia), MOLM-13 (human acute myeloid leukemia), MV4.11 (human acute monocytic leukemia), HCT-15 (human colorectal adenocarcinoma), PC3 (human prostate cancer), MCF7 (human breast cancer), NCTC3749 (mouse lymphoma) as well as the MRC.5 cells (non-malignant human lung fibroblasts) were maintained in RPMI-1640 medium. The cell lines L1210 (mouse lymphocytic leukemia cells), Raw (mouse macrophage), HeLa (human epithelial cervix cancer), U-2 OS (human osteosarcoma), MG63 (human osteosarcoma) and T47D (human breast cancer adenocarcinoma) were maintained in DMEM. HEK293 cells stably expressing the GH receptor (HEKGHR) were maintained in DMEM-F12 medium. The human breast cancer cell line SKBR3 was maintained in McCoy’s 5A medium. Cell culture medium was supplemented with 10% FBS, L-glutamine (2 mM) and PEST. In addition, the cell culture medium for T47D was supplemented with 1 mM NaPyr and 10 mM HEPES. Human peripheral blood mononuclear cells (PBMC) were isolated from heparin-anticoagulated blood of healthy volunteers by centrifugation with Ficoll-Paque Plus (Amersham Biosciences).
Cells were seeded in 96-well plates (BD Falcon, France) at exponential growth density (5000–20000 cells/well) and treated with vehicle (0.05% DMSO) or compound (0.01 to 10 μM) for 48–72 h. The mitochondrial metabolization of the tetrazolium salt 3-(4,5-methyltiazol-2yl-)-2,5diphenyl-tetrazolium bromide] (MTT) (Applichen, Germany) was used as indicator of cell viability. Optical density was measured at 595 nm with the iMark Microplate Reader (BioRad, CA, USA).

[3] = test system: MOLM.13 cells; assay: MTT cell viability assay, MOLM.13 cells; assay type: cell-based; settings: Homo sapiens, MOLM.13, 48 h, read-out: IC50 (μM) Mean ± SD
Experimental: as §1, §2

[4] = test system: MV4.11 cells; assay: MTT cell viability assay, MV4.11 cells; assay type: cell-based; settings: Homo sapiens, MV4.11, 48 h, read-out: IC50 (μM) Mean ± SD
Experimental: as §1, §2

[5] = test system: T47D cells; assay: MTT cell viability assay, T47D cells; assay type: cell-based; settings: Homo sapiens, 48 h, read-out: IC50 (μM) Mean ± SD
Experimental: as §1, §2

[6] = test system: SKBR3 cells; assay: MTT cell viability assay, SKBR3 cells; assay type: cell-based; settings: Homo sapiens, SK-BR-3, SKBR3, 48 h, read-out: IC50 (μM) Mean ± SD
[7] = test system: U-2 OS cells; assay: MTT cell viability assay, U-2 OS cells; assay type: cell-based; settings: Homo sapiens, U2OS, 48 h, read-out: IC50 (μM) Mean ± SD
Experimental: as §1, §2

[8] = test system: MRC.5 cells; assay: MTT cell viability assay, MRC.5 cells; assay type: cell-based; settings: Homo sapiens, MRC5, MRC.5 non-malignant lung fibroblasts, 48 h, read-out: IC50 (μM) Mean ± SD
Experimental: as §1, §2

[9] = test system: pTyr694-Stat5 (pYStat5); assay: Immunoblotting of constitutive pYStat5 in K562 cells; assay type: cell-based; settings: Homo sapiens; K562, 3 μM CM363, 3 h
Experimental: Then, cells were rinsed with cold PBS-vanadate (1 mM) followed by preparation of whole lysis extract with RIPA (Pierce, Illinois, USA). Equal amounts of each sample were separated by SDS-PAGE and transfered onto nitrocellulose membranes. After being blocked with 1% BSA-1% Blotto (anti-phospho-antibodies) (Santa Cruz Biotechnology, CA, USA) or 5% blotto (anti-total-antibodies) (Santa Cruz Biotechnology, CA, USA) (both diluted in Tris buffered saline with 0.05% Tween 20), membranes were immunoblotted overnight at 4°C with dilution (1:1000) in the same buffer of blocking of primary phosphoprotein or total protein antibodies. […] To control for differences in loading and transfer efficiency across membranes, membranes were incubated with a monoclonal mouse anti-beta actin antibody (Santa Cruz Biotechnology, CA, USA). The phosphoprotein array analysis of K562 cells was carried out by using the Profiler Human Phospho-Kinase Array Kit ARY003B (R&D Systems, Minneapolis, MN, USA) according to the manufacturer`s instructions.

[10] = test system: K562 tumor xenografts; assay: K562 tumor xenografts in NOD-SCID mice; assay type: in vivo; settings: CM363 10 mg/kg i.p., 25 days, P = 0.004 day 4, P = 0.007 day 25
Experimental: Six weeks old female athymic mice (NOD-SCID), were purchased from Charles River River (Barcelona, Spain), and were housed in a specifically designed pathogen-free isolation facility as reported previously. […] The vehicle and CM363 treatments were administered via intraperitoneal injection (i.p.) every day except Saturday and Sunday. […] The study was conducted over a 25 days period. Caliper measurements of the tumor diameters were performed twice per week, and the tumor volume was estimated as the volume of an ellipse using the following formula: V = 4/3n × (a/2) × (b/2)^2, where a and b correspond to the longest and shortest diameter, respectively. Mice were sacrificed when their tumor diameters reached 2 cm, or when they became moribund. Differences in tumor volumes between control and treated group were evaluated using the Mann-Whitney test.

[11] = Body weight of xenografted mice; assay type: in vivo; settings: CM363 10 mg/kg i.p., 25 days
Experimental: Six weeks old female athymic mice (NOD-SCID), were purchased from Charles River River (Barcelona, Spain), and were housed in a specifically designed pathogen-free isolation facility as reported previously. The mice were subcutaneously inoculated into the right flank with 2.5 × l0^6 K562 cells in 100 μL of RPMI-1640 medium and 100 μL of Matrigel. When tumors became palpable, mice were randomized into three groups (n = 8 per group); the control group (receiving vehicle alone- DMSO: PEG-400: sterile water at 5:25:70 (w/v)), the group receiving CM363 10 mg/Kg or the group receiving the positive control IM 40 mg/kg. The vehicle and CM363 treatments were administered via intraperitoneal injection (i.p.) every day except Saturday and Sunday. While IM was administered orally using the same schedule. The study was conducted over a 25 days period. Caliper measurements of the tumor diameters were performed twice per week, and the tumor volume was estimated as the volume of an ellipse using the following formula: V = 4/3n × (a/2) × (b/2)^2, where a and b correspond to the longest and shortest diameter, respectively. Mice were sacrificed when their tumor diameters reached 2 cm, or when they became moribund. Differences in tumor volumes between control and treated group were evaluated using the Mann-Whitney test.

N#Cc1ccc(C2C3=C(CCCC3=O)OC3=C2C(=O)c2ccccc2C3=O)cc1 (stereo not shown) [CM363, 4-(1,6,11-trioxo-2,3,4,6,11,12-hexahydro-1H-benzo[b]xanthen-12-yl)benzonitrile]
IC50 [1]: 0.6 ± 0.2 µM | IC50 ([2]; IM sensitive K562, 72 h, MTT (Fig 10D), read-out: IC50, cell viability): ~0.6 µM | IC50 ([2]; K562, 48 h, MTT, read-out: IC50 (μM) Mean ± SD): 0.7 ± 0.5 µM | lowest concentration at which inhibition was detected ([2]; IM sensitive K562, 72 h, MTT (Fig 10D)): 0.3 µM | IC50 [3]: 0.7 ± 1.1 µM | IC50 [4]: 1.2 ± 1.1 µM | IC50 [5]: 1.3 ± 1.2 µM | IC50 [6]: 2.6 ± 0.8 µM | IC50 [7]: 4.3 ± 1.2 µM | IC50 [8]: 3.5 µM | inhibition at 3 µM [9]: 20% | tumor growth (tumor volume) versus control group [10]: suppressed the growth; also recorded: pronounced, and statistically significant reduction | body weight [11]: no significant body weight reduction
